Read-outs that look alike come from different tables or passages of the source.
Columns and labels:
HCT116 cells = experiment: Inhibition of cell proliferation by CTG (CellTiter-Glo) luminescence assay; format: cell-based; conditions: Homo sapiens, read-out: HCT116, IC50
Description: Test Example 2. Determination of Compound-Mediated Inhibition of Cell Proliferation by CTG (CellTiter-Glo) Luminescence Assay
Principle: The Promega CellTiter-Glo™ luciferase reagent was used. Luciferase consumes ATP to generate light; metabolically active cells continuously produce ATP through respiration and other processes. After adding an equal volume of CellTiter-Glo™ reagent to the culture medium, the resulting luminescence is directly proportional to the ATP content, which in turn correlates with the number of viable cells. Thus, the assay quantifies compound-induced suppression of cell proliferation.
Experimental Procedure: HCT116 cells (ATCC) were revived in complete medium (McCoy's 5a + 10 % FBS). After two passages, exponentially growing cells were harvested, counted, and resuspended to the appropriate density. A 100 µL aliquot of cell suspension (2 000 cells per well) was seeded into 96-well plates and incubated overnight (37 °C, 5 % CO2, 100 % relative humidity). Test compounds were dissolved in DMSO to prepare 10 mM stock solutions and serially diluted 1:3 in DMSO to generate nine concentration steps. Each DMSO solution was further diluted 200-fold into medium; 25 µL of the resulting solutions were added to the cell plates (final DMSO concentration […]). After 72 h incubation (37 °C, 5 % CO2), 50 µL of CellTiter-Glo reagent was added per well. Plates were shaken gently, incubated for 30 min at room temperature in the dark, and luminescence was read on an EnVision multimode reader. Percent inhibition was calculated as: Inhibition % = (1−As/Ac) × 100, [formula] where As = signal from compound-treated wells and Ac = signal from DMSO-only control wells. Concentration-response data were fitted in Excel with the XLfit add-in using the four-parameter logistic equation: Y = Bottom + (Top−Bottom)/[1+((IC50/X))^(∧)HillSlope], [formula] to derive the IC50 value for each compound. Table 2. IC50 of compounds

topoisomerase I (Topo I) = target: T1, topoisomerase I (Topo I) (Homo sapiens, UniProt P11387); experiment: Topo I enzyme-inhibitory activity by agarose-gel electrophoresis (plasmid relaxation); format: biochemical
T1 sequence (P11387 1-765): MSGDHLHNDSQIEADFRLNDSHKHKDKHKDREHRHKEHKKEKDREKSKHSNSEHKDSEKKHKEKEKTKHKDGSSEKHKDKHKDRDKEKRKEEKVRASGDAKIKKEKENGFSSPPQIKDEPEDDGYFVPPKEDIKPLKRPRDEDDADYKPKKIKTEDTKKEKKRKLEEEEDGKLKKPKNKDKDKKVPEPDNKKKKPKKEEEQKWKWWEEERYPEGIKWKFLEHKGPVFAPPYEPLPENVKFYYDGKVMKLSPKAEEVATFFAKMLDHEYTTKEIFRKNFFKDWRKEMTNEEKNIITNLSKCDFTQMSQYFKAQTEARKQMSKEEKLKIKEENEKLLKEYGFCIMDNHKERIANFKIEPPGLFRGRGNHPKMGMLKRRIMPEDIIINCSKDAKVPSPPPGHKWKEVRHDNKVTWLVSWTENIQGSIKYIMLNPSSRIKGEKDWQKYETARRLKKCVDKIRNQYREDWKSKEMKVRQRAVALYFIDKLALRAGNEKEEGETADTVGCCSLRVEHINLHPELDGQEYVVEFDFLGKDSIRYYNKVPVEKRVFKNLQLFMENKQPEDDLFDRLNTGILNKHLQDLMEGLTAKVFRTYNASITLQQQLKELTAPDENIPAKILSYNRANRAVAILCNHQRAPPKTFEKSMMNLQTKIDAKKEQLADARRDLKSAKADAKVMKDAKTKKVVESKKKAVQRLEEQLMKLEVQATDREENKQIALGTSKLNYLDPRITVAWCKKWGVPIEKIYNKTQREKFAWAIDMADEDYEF
Description: Test Example 1. Determination of Topo I Enzyme-Inhibitory Activity by Agarose-Gel Electrophoresis
Principle: Type-I topoisomerase (Topo I) relaxes positive and negative supercoils by introducing transient single-strand breaks and forming reversible cleavage complexes (Topo I-DNA covalent complexes). Gel electrophoresis can resolve DNA species of identical molecular weight but different topology: supercoiled plasmid migrates fastest, whereas the nicked, relaxed form moves more slowly. Quantifying the decrease in supercoiled DNA therefore provides a direct measure of Topo I activity.
Experimental Procedure: A 1× reaction buffer was prepared (20 mM Tris-HCl pH 7.5, 200 mM NaCl, 0.25 mM EDTA, 5 % (v/v) glycerol, 0.5 µg pNO1 plasmid substrate). Test compounds (5 % DMSO final) were added to the buffer, followed by Topo I enzyme (0.75 U per reaction). After gentle mixing, reactions were incubated at 37 °C for 30 min. Positive (enzyme + vehicle) and negative (no enzyme) controls were included in parallel. Reactions were terminated by adding STEB buffer and chloroform/iso-amyl alcohol (24:1, v/v), vortexed and centrifuged for 2 min. The aqueous (upper) phase was loaded onto a 1 % (w/v) agarose gel, electrophoresed for 1-2 h, stained with GelRed, and imaged under UV trans-illumination.
Data Analysis: Band intensities of supercoiled DNA were quantified with image-analysis software. Relaxation activity (%) was calculated as (Max-Sample)/ (Max-Min)*100%, where Max = intensity of the no-enzyme negative control, Min = intensity of the vehicle-only positive control, and Sample = intensity of the compound-treated lane. Dose-response data (compound concentration, X; relaxation activity %, Y) were fitted in Excel or GraphPad Prism 5.0 using the four-parameter logistic equation: Y=Bottom + (Top-Bottom)/(1+(IC50/X)[…]) to derive the IC50 value for each compound.
Table 1. Compound-mediated inhibition of topoisomerase I (Topo I) enzymatic activity

[1] = read-out: inhibition of topoisomerase I (Topo I) enzymatic activity, IC50; 0.75 U Topo I, pNO1 plasmid, 37 °C, 30 min; compounds listed by group (Group A / Group B)
[2] = HCT-116, 72 h incubation, CellTiter-Glo
[3] = 0.75 U Topo I, pNO1 plasmid, 37 °C, 30 min; compounds listed by group (Group A / Group B); read-out: inhibition of topoisomerase I (Topo I) enzymatic activity, IC50

| SMILES | IC50 (HCT116 cells; HCT-116, 72 h) [nM] | IC50 (topoisomerase I (Topo I); [1]) [nM] | IC50 (HCT116 cells; [2]) [nM] | IC50 (topoisomerase I (Topo I); [3]) [nM] |
| --- | --- | --- | --- | --- |
| CC[C@@]1(O)C(=O)OCc2c1cc1n(c2=O)Cc2c-1c(=O)c1cc(F)ccc1n2-c1cccc(N)c1 [Example 71, (S)-11-(3-aminophenyl)-4-ethyl-8-fluoro-4-hydroxy-1H-pyrano[3,4:6,7]indolizino[2,1-b]quinoline-3,6,14(4H,11H,12H)-trione] | < 20 | 200 to 500 |  |  |
| CC[C@@]1(O)C(=O)OCc2c1cc1n(c2=O)Cc2c-1c(=O)c1cc(F)c(C)cc1n2CCNC1CC1 [Example 161] | < 20 | 200 to 500 |  |  |
| CC[C@@]1(O)C(=O)OCc2c1cc1n(c2=O)Cc2c-1c(=O)c1cc(F)ccc1n2-c1cccnc1 [Example 60, (S)-4-ethyl-8-fluoro-4-hydroxy-11-(pyridin-3-yl)-1H-pyrano[3',4':6,7]indolizino[2,1-b]quinoline-3,6,14(4H,11H,12H)-trione] |  |  | < 20 | 200 to 500 |
| CC[C@@]1(O)C(=O)OCc2c1cc1n(c2=O)Cc2c-1c(=O)c1cc(F)ccc1n2-c1cnn(C)c1 [Example 57, (S)-4-ethyl-8-fluoro-4-hydroxy-11-(1-methyl-1H-pyrazol-4-yl)-1H-pyrano[3',4':6,7]indolizino[2,1-b]quinoline-3,6,14(4H,11H,12H) -trione] |  |  | < 20 | 200 to 500 |
| CC[C@@]1(O)C(=O)OCc2c1cc1n(c2=O)Cc2c-1c(=O)c1cc(F)ccc1n2C(C)C [Example 36, (S)-4-ethyl-8-fluoro-4-hydroxy-11-isopropyl-1,12-dihydro-14H-pyrano[3',4':6,7]indolizino[2,1-b]quinoline-3,6,14(4H,11H)-trione] | < 20 | < 200 |  |  |
| CC[C@@]1(O)C(=O)OCc2c1cc1n(c2=O)Cc2c-1c(=O)c1cc(F)ccc1n2CCN(C1CCCC1)C1CC1 [Example 137] | < 20 | 200 to 500 |  |  |
| CCOCCc1cc(F)cc2c(=O)c3c(n(C)c12)Cn1c-3cc2c(c1=O)COC(=O)[C@]2(O)CC [Example 23, (S)-10-(2-ethoxyethyl)-4-ethyl-8-fluoro-4-hydroxy-11-methyl-1,12-dihydro-14H-pyrano[3,4:6,7]indolizino[2,1-b]quinoline-3,6,14 (4H,11H)-trione] | < 20 | 200 to 500 |  |  |
| CC[C@@]1(O)C(=O)OCc2c1cc1n(c2=O)Cc2c-1c(=O)c1cc(F)ccc1n2CCN1CCC(F)(F)CC1 [Example 190] | < 20 | < 200 |  |  |
| CC[C@@]1(O)C(=O)OCc2c1cc1n(c2=O)Cc2c-1c(=O)c1cc(F)c(C)cc1n2CCNC1CCCC1 [Example 163] | < 20 | 200 to 500 |  |  |
| CC[C@@]1(O)C(=O)OCc2c1cc1n(c2=O)Cc2c-1c(=O)c1cc(F)c(F)cc1n2C [Example 5, (S)-4-ethyl-8,9-difluoro-4-hydroxy-11-methyl-1,12-dihydro-14H-pyrano[3',4':6,7]indolizino[2,1-b]quinoline-3,6,14(4H,11H)-trione] |  |  | < 20 | < 200 |
| CC[C@@]1(O)C(=O)OCc2c1cc1n(c2=O)Cc2c-1c(=O)c1cc(F)c(CN(C)C3CC3)cc1n2C1CCCC1 [Example 228] |  |  | < 20 | 200 to 500 |
| CC[C@@]1(O)C(=O)OCc2c1cc1n(c2=O)Cc2c-1c(=O)c1cc(F)c(N)cc1n2C1CCCC1 [Example 69, (S)-9-amino-4-ethyl-8-fluoro-4-hydroxy-11-cyclopentyl-1,12-dihydro-14H-pyrano[3,4:6,7]indolizino[2,1-b]quinoline-3,6,14(4H,11H)-trione] |  |  | < 20 | < 200 |
| CC[C@@]1(O)C(=O)OCc2c1cc1n(c2=O)Cc2c-1c(=O)c1cc(F)c(C)cc1n2CCN(C1CCCC1)C1CC1 [Example 167] | < 20 | 200 to 500 |  |  |
| CC[C@@]1(O)C(=O)OCc2c1cc1n(c2=O)Cc2c-1c(=O)c1cc(F)c(N)cc1n2-c1cc(OC)cc(C(C)C)c1 [Example 355] |  |  | < 20 | 200 to 500 |
| CC[C@@]1(O)C(=O)OCc2c1cc1n(c2=O)Cc2c-1c(=O)c1cc(F)c(C)cc1n2CCN(C)C1CCCC1 [Example 166] | < 20 | 200 to 500 |  |  |
| CC[C@@]1(O)C(=O)OCc2c1cc1n(c2=O)Cc2c-1c(=O)c1cc3c(cc1n2-c1ccc(N)cc1)OCO3 [Example 67, (S)-5-(4-aminophenyl)-12-ethyl-12-hydroxy-9,12-dihydro-8H-[1,3]dioxolo[4,5-g]pyrano[3,4:6,7]indolizino[2,1-b]quinoline-8,11,14 (SH,6H)-trione] | < 20 | 200 to 500 |  |  |
| CC[C@@]1(O)C(=O)OCc2c1cc1n(c2=O)Cc2c-1c(=O)c1cc(F)ccc1n2CCNC1CCC1 [Example 106] | < 20 | 200 to 500 |  |  |
| CC[C@@]1(O)C(=O)OCc2c1cc1n(c2=O)Cc2c-1c(=O)c1cc(F)c(C)cc1n2-c1ccc(N)cc1 [Example 68, (S)-11-(4-aminophenyl)-4-ethyl-8-fluoro-4-hydroxy-9-methyl-1,12-dihydro-14H-pyrano[3,4:6,7]indolizino[2,1-b]quinoline-3,6,14 (4H,11H)-trione] | < 20 | 200 to 500 |  |  |
| CC[C@@]1(O)C(=O)OCc2c1cc1n(c2=O)Cc2c-1c(=O)c1cc(F)cc(C)c1n2CCN(C)C1CCCC1 [Example 172] | < 20 | 200 to 500 |  |  |
| CC[C@@]1(O)C(=O)OCc2c1cc1n(c2=O)Cc2c-1c(=O)c1cc(F)c(CNC3CC3)cc1n2C1CCCC1 [Example 227] | < 20 | 200 to 500 |  |  |
| CC[C@@]1(O)C(=O)OCc2c1cc1n(c2=O)Cc2c-1c(=O)c1cc(F)ccc1n2CCNC1CCCC1(C)C (stereo partly shown) [Example 138] | < 20 | 200 to 500 |  |  |
| CC[C@@]1(O)C(=O)OCc2c1cc1n(c2=O)Cc2c-1c(=O)c1cc(F)c(CO)cc1n2C1CCCC1 [Example 291, (S)-11-cyclopentyl-4-ethyl-8-fluoro-4-hydroxy-9-(hydroxymethyl)-1,12-dihydro-14H-pyrano[3,4:6,7]indolizino[2,1-b]quinoline-3,6,14(4H,11H)-trione] |  |  |  | 200 to 500 |

Source: EP4778929A1, “NOVEL TYPE I TOPOISOMERASE INHIBITOR, AND PREPARATION METHOD THEREFOR AND USE THEREOF” (priority 2023, dated 2025)
